Patent publication US8450272B2, “Combinations of somatostatin-analogs with different selectivity for human somatostatin receptor subtypes” (priority 2006, dated 2013)
Numbered stars: 1 amine (or outer) side, 2 acyl side, 3 side chain; on linkers, the order of the positions; unused ones are H or OH. Square brackets hold non-standard residues; d marks the D form. Side chains are listed from the residue outwards. Peptide text beside a SMILES is read from it. * marks the point of attachment. ξ: configuration not given here. Ethylenediamine = C(CN[*:2])N[*:1]; Hyp = O=C(O)[C@@H]1C[C@@H](O)CN1; ξPhg = NC(C(=O)O)c1ccccc1; CO = O=C([*:1])[*:2]; Bn = c1ccc(C*)cc1

Columns and labels:
[1] = Long-term s.c. infusion by osmotic minipumps, plasma glucose concentration; type: in vivo, adult male Lewis rats; conditions: 3 and 10 μg/kg/h alone, rats
Procedure: Effect of long term application of octreotide and pasireotide alone and in combination on plasma glucose concentration in rats. Compounds were continuously infused by osmotic minipumps at 3 and 10 μg/kg/h for the single compounds and at 1.5, 5 and 10 μg/kg/h for the combinations. Plasma glucose levels were determined one day before and 1, 7 and 14 days after minipumps implantation.
In the long-term experiments octreotide and pasireotide and their combination were s.c. infused in rats using osmotic minipumps (Alzet model: 2002). Blood samples were taken by sublingual bleeding on the day before minipump implantation and after 1, 7 and 14 days.

[2] = Short term experiment: acute s.c. injection, blood glucose AUC; type: in vivo, adult male Lewis rats; conditions: 10 μg/kg s.c., rats, within 1 hour after injection
Procedure: Effect of an acute s.c. injection of octreotide and pasireotide in rats (1 and 10 μg/kg) and different combinations thereof on the accumulated glucose levels between 0 and 1 hour after the injection (n=6 animals per group).
In the short term experiment octreotide and pasireotide and their combination were s.c. injected in rats in 1 ml saline. Blood samples were taken by sublingual bleeding the rats 15 min, 30 min, 1 h, 3 h, 6 h and 8 h after the injection and blood glucose was determined using ACCU-Chek Compact (Roche), which was newly calibrated before each measurement. In order to determine the overall effect of the treatment on glucose the area under the curve (AUC) was determined using GraphPad Prizm. 4.0.

[3] = Previous experiments: glucose increase after pasireotide injection; type: in vivo; conditions: rats
Procedure: Based on previous experiments in rats it was known that acute injection of pasireotide causes an increase in glucose, which was rapid in onset (within 30 min after injection), reached its peak between 1 and 3 h and returned to baseline values after 6-8 h. […] Therefore only moderate increases in glucose have been observed after repeated or long-term treatment with pasireotide mainly on the first day(s) of treatment. […] In order to investigate the efficacy of both compounds and their combination on a relevant parameter in rats plasma GH and IGF-1 levels as well as body weight were determined in rats within 14 days of continuous infusion with the compounds. […] Due to the known pulsatile release pattern of GH and the low sensitivity of the available GH RIA, levels of IGF-1 and body weight (BW) are more reliable parameters to determine efficacy of a compound on the GH/IGF-1 system. GH and IGF-1 are both growth factors which are responsible for growth of animals and humans and lack of these factors result in growth retardation in animals which are still growing (like in rats). […] Unlike the rapid changes in glucose levels, changes in IGF-1 levels are only observed after 1-2 days of treatment with somatostatin analogues.

[4] = in vivo; cited from earlier work

Structure (SMILES) | plasma glucose ([1]; continuous infusion for 14 days) | change of AUC glucose levels vs. control [2] | onset of increase in glucose after injection ([3]; acute injection) | return of glucose to baseline values ([3]; acute injection) | glucose response on repeated or long term injections ([3]; repeated or long term injections) | t1/2 [4] | plasma level of glucose ([1]; continuous infusion, day 1 and 7 of treatment)
C[C@@H](O)[C@@H]1NC(=O)[C@H](CCCCN)NC(=O)[C@@H](Cc2c[nH]c3ccccc23)NC(=O)[C@H](Cc2ccccc2)NC(=O)[C@@H](NC(=O)[C@H](N)Cc2ccccc2)CSSC[C@@H](C(=O)N[C@H](CO)[C@@H](C)O)NC1=O [octreotide] | no effect or caused a small but significant reduction | no effect |  |  |  |  | 
NCCCC[C@@H]1NC(=O)[C@@H](Cc2c[nH]c3ccccc23)NC(=O)C(c2ccccc2)NC(=O)[C@@H]2C[C@@H](OC(=O)NCCN)CN2C(=O)[C@H](Cc2ccccc2)NC(=O)[C@H](Cc2ccc(OCc3ccccc3)cc2)NC1=O (stereo partly drawn) [pasireotide, cyclo[{4-(NH2—C2H4—NH—CO—O—)Pro}-Phg-DTrp-Lys-Tyr(4-Bzl)-Phe]] (cyclo(F[Hyp]([CO-Ethylenediamine])[ξPhg][dW]KY(Bn))) |  | 56% | ≤ 30 min | 6 to 8 h | strong tachyphylaxis | 11 h | slightly, but significantly increased
